Patent US20220125987A1, “WOUND CLOSURE DEVICES COMPRISING PROTOCATECHUIC ACID” (priority 2020, published 2022)
Entries after “also recorded” stand apart in the source; their conditions may differ.

Assays:
[1] = system: Pseudomonas aeruginosa; assay: Kirby-Bauer disc diffusion antimicrobial susceptibility testing; type: cell-based
[2] = system: P. aeruginosa (ACTA 9027); assay: Mouse tape-stripped skin wound infection model (Example 2); type: in vivo; conditions: day five; for bacterial burden: topical aqueous 50, 100, 200 mM at two hours and daily for four days, none statistically significant; for most effective dose concentration: topical aqueous
[3] = system: P. aeruginosa (ACTA 27853); assay: Mouse tape-stripped skin wound infection model (Example 3); type: in vivo; conditions: for bacterial burden: 48 and 96 hours
Description: Mice had back skin tape stripped and the stripped site (wound) was infected with P. aeruginosa (ACTA 27853). The test reagents were applied topically in an aqueous solution on the stripped site at two hours and daily on day 1, 2 and 3.
C3G, an anthocyanin and its main metabolite PCA were formulated and tested at several doses. The aqueous carrier was water. The C3G formulation included 100 mM and 200 mM dose concentrations and the PCA formulation included 25 and 50 mM dose concentrations.

[4] = system: Pseudomonas aeruginosa; assay: Bacterial kill in stripped skin wound of a rodent; type: in vivo; conditions: for bactericidal effect on stripped skin wound: topical at various calculated doses, in 48 to 96 hours; for kill of Pseudomonas aeruginosa: topical on stripped skin wound, in 48 hours, both reagents and dose
Text: Experimental Groups: There were 4 experimental groups. […] Treatment varied by reagent and dosage.

[5] = system: P. acnes; assay: Kirby-Bauer disc diffusion antimicrobial susceptibility testing; type: cell-based
[6] = system: stripped skin wound infected with Pseudomonas aeruginosa (ATCC 27853); assay: Histology of stripped, infected and treated mouse skin wound (Example 6); conditions: 48 hours; for tissue repair as evidenced by histology: two different doses
[7] = system: IGF-1, TGF-β, EGF; assay: Local growth factor levels in normal (unstripped, uninfected) mouse skin (Example 4); type: in vivo, mice; conditions: 100 μM topical, normal rodent skin
Description: Mice were shaved but unstrapped and uninfected (normal rodent skin). The test reagents were applied topically in an aqueous solution on the unstripped site at two hours and daily on day 1, 2 and 3. Testing reagents consisted of […] and PCA formulated at one dose, 100 μM in an aqueous solution.

[8] = rat, in vivo; cited from earlier work
[9] = human skin; cited from earlier work
[10] = system: IGF-1, TGE-β, EGF; assay: Growth factor levels by ELISA in stripped, infected mouse skin (Example 5); type: in vivo, mice
Description: Four different conditions were used: mice had back skin tape stripped and the stripped site (wound) was infected with P. aeruginosa; mice had back skin stripped and were not infected, mice had taped stripped, infected and treated with PCA, mice were tape stripped, uninfected, and treated with PCA. When used, the PCA test reagent was applied topically in an aqueous solution on the stripped site at two hours and 24 hours.
The testing reagents consisted of and PCA formulated at one dose, 25 mM, in an aqueous solution. Levels of IGF-1, TGE-β, and EGF levels in the skin tissue at 48 hours were measured by ELISA. There were two control groups: the stripped skin and the stripped skin and infected.

[11] = female, rat, in vivo
[12] = system: Pseudomonas; conditions: cited from earlier work
[13] = after ingestion; cited from earlier work
[14] = system: Staphylococcus aureus ATCC 33591 (MRSA); assay: Kirby-Bauer disc diffusion antimicrobial susceptibility testing; type: cell-based
[15] = system: MRSA; conditions: cited from earlier work
[16] = system: Candida albicans; assay: Kirby-Bauer disc diffusion antimicrobial susceptibility testing; type: cell-based
Text: This example describes the method for testing the antimicrobial susceptibility of anthocyanins, anthocyanidins, or metabolites and compounds thereof. The Kirby-Bauer method of disc diffusion was used for testing, following a standard set of procedures recommended by the NCCLS. In this methodology, a set of discs saturated with either testing compounds or a control was placed on inoculated agar plates. The plates were inoculated with organisms including C. difficile, P. acnes, C. prefringens, L. casei, C. albicans, E. coli, ATTC 8739 and ATCC 43895, S. aureus, S. mutans, S. pyogenes, P. aeruginosa and K. pneumonia. The control sample was amoxicillin, an antimicrobial with very effective broad-spectrum antibiotic properties. Samples included delphinidin, pelargonidin, cyanidin CI, 28% cyanindin-3-glucoside (C3G), protocatechuic acid (PCA) and 2,4,6 Trihydroxybenzaldehyde (2,4,6 THBA).
After 18, 24, or 48 hours of incubation, depending upon the microorganism, each plate was examined. The diameters of the zones of complete inhibition were measured, including the diameter of the disc. Zones were measured to the nearest millimeter, using sliding calipers. The size of the zones of inhibition was interpreted by referring to NCCLS standard. […]

[17] = all tested doses (PCA 25, 50 mM; C3G 100, 200 mM)

Q: Which “activity against Pseudomonas aeruginosa” value [1] does the source give for `CC1(C)S[C@@H]2[C@H](NC(=O)[C@H](N)c3ccc(O)cc3)C(=O)N2[C@H]1C(=O)O` [Amoxicillin, amoxicillin, reference compound] here?
A: Its value is “no effect”.

Q: Which bacterial burden [2] does the source give for `OC[C@H]1O[C@@H](Oc2cc3c(O)cc(O)cc3[o+]c2-c2ccc(O)c(O)c2)[C@H](O)[C@@H](O)[C@@H]1O` [C3G, Cyanidin 3-glucoside] here?
A: Its bacterial burden is “decreased the bacterial burden”.

Q: What about the “most effective dose concentration” value [2] of the same compound?
A: Its value is 100 mM.

Q: And the bacterial burden ([3]; 100 mM topical)?
A: Its bacterial burden is “significantly reduced the bacterial burden”.

Q: And the bacterial burden ([3]; 200 mM topical)?
A: The bacterial burden was “significantly reduced the bacterial burden”.

Q: And the bacterial burden [3, 17]?
A: The bacterial burden was “decreased the bacterial burden”.

Q: What about the “bactericidal effect on stripped skin wound” value [4] of the same compound?
A: Its value is “bactericidal”.

Q: What about the “kill of Pseudomonas aeruginosa” value [4] of the same compound?
A: Its value is 10,000 fold.

Q: And the “activity against P. acnes” value [5]?
A: The value was “bactericidal”.

Q: And the dermal layer thickness ([6]; C3G 100 mM)?
A: The dermal layer thickness was “thicker”.

Q: And the “hair follicles, cellular lining” value ([6]; C3G 100 mM)?
A: The value was “single and double cellular lining”.

Q: What about the inflammation ([6]; C3G 100 mM) of the same compound?
A: The inflammation was “inflammation in the dermis and muscular layer and below”.

Q: What about the surface cellularity ([6]; C3G 100 mM) of the same compound?
A: The surface cellularity was “multiple cellular covering of the surface”.

Q: What about the vascularity ([6]; C3G 100 mM) of the same compound?
A: Its vascularity is “prominent”.

Q: And the dermal layer thickness ([6]; C3G 200 mM)?
A: Its dermal layer thickness is “thickened”.

Q: And the “hair follicles, cellular lining” value ([6]; C3G 200 mM)?
A: Its value is “single and double cellular lining”.

Q: What about the inflammation ([6]; C3G 200 mM) of the same compound?
A: The inflammation was “inflammation in the dermis and muscular layer”.

Q: What about the surface cellularity ([6]; C3G 200 mM) of the same compound?
A: The surface cellularity was “multiple cells thick”.

Q: And the vascularity ([6]; C3G 200 mM)?
A: The vascularity was “increased”.

Q: What about the “tissue repair as evidenced by histology” value [6] of the same compound?
A: Its value is “stimulated tissue repair”.

Q: What about the “all three local growth hormones (IGF-1, TGF-β, EGF)” value [7] of the same compound?
A: The value was “decrease of all three local growth hormones”.

Q: With `O=C(O)c1ccc(O)c(O)c1` [PCA, 3,4 dihydroxybenzoic acid] as the compound, how does the bacterial burden [2] read?
A: Its bacterial burden is “decreased the bacterial burden”.

Q: What about the “most effective dose concentration” value [2] of the same compound?
A: The value was 50 mM.

Q: What about the toxicity [8] of the same compound?
A: The toxicity was “greater than 5000 mg/kg body weight”.

Q: And the skin irritation [9]?
A: The skin irritation was “no skin irritation”.

Q: And the IGF-1 production ([10]; 25 mM topical at 2 and 24 hours, stripped and infected skin, 48 hours)?
A: Its IGF-1 production is “optimizes the IGF-1 production”.

Q: And the local growth hormones ([10]; 25 mM topical, stripped and infected skin)?
A: The local growth hormones was “optimizes the local growth hormones”.

Q: What about the EGF response level ([10]; 25 mM topical, stripped, infected and treated wound vs other groups, 48 hours) of the same compound?
A: Its EGF response level is “lowest”.

Q: And the “human relative dose to exceed safety” value [11]?
A: Its value is 350,000 milligrams per day.

Q: And the “biofilm destruction, Pseudomonas” value [12]?
A: The value was “biofilm destroyer”.

Q: What about the “activity against Pseudomonas aeruginosa” value [1] of the same compound?
A: Its value is “some effectiveness”.

Q: What about the “duration of metabolism prior to excretion in the urine and feces” value [13] of the same compound?
A: Its value is “eight”.

Q: And the “statistical significance of bacterial burden reduction” value ([3]; 25 mM topical)?
A: The value was “statistically significant at 48 hours”.

Q: What about the bacterial burden ([3]; 25 mM topical) of the same compound?
A: The bacterial burden was “reduced the bacterial burden at both time periods”.

Q: What about the bacterial burden [3, 17] of the same compound?
A: The bacterial burden was “decreased the bacterial burden”.

Q: What about the “activity against Staphylococcus aureus ATCC 33591 (MRSA)” value [14] of the same compound?
A: Its value is “effective”.

Q: And the “biofilm destruction, MRSA” value [15]?
A: The value was “biofilm destroyer”.

Q: What about the “bactericidal effect on stripped skin wound” value [4] of the same compound?
A: The value was “bactericidal”.

Q: What about the “kill of Pseudomonas aeruginosa” value [4] of the same compound?
A: Its value is 10,000 fold.

Q: And the “activity against P. acnes” value [5]?
A: Its value is “bactericidal”.

Q: What about the “collagen between epidermis and dermis” value ([6]; PCA 25 mM) of the same compound?
A: Its value is “collagen proliferation between the epidermis and dermis; also recorded: collagen layer formation between the epidermis and dermis”.

Q: What about the dermal layer thickness ([6]; PCA 25 mM) of the same compound?
A: The dermal layer thickness was “thickened”.

Q: And the “hair follicles, cellular lining” value ([6]; PCA 25 mM)?
A: Its value is “prominent with multiple cellular lining”.

Q: And the inflammation ([6]; PCA 25 mM)?
A: The inflammation was “abundant inflammation”.

Q: And the surface cellularity ([6]; PCA 25 mM)?
A: The surface cellularity was “abundant and multiple cell layers”.

Q: What about the vascularity ([6]; PCA 25 mM) of the same compound?
A: Its vascularity is “moderate vascularity, but less than that seen in infected untreated group”.

Q: What about the dermal layer thickness ([6]; PCA 50 mM) of the same compound?
A: Its dermal layer thickness is “thicker”.

Q: What about the “hair follicles, cellular lining” value ([6]; PCA 50 mM) of the same compound?
A: The value was “double layer of cells”.

Q: And the inflammation ([6]; PCA 50 mM)?
A: Its inflammation is “increased in the dermis and below the muscle layer”.

Q: What about the surface cellularity ([6]; PCA 50 mM) of the same compound?
A: Its surface cellularity is “covered with multiple layers of cells”.

Q: What about the vascularity ([6]; PCA 50 mM) of the same compound?
A: Its vascularity is “increased vascularity”.

Q: What about the “tissue repair as evidenced by histology” value [6] of the same compound?
A: The value was “stimulated tissue repair”.

Q: What about the “susceptibility of Candida albicans” value [16] of the same compound?
A: Its value is “susceptible”.
